In patent US20210244686A1, “Novel Systems And Methods For The Therapeutic Use of Cannabinoids or Cannabinoid Analogs to Increase The Lipid Order of Cholesterol Containing Cell Membranes” (The Regents of the University of Colorado a body corporate, priority 2018, published 2021):

Tests used:
SK-N-BE(2) cells [1] = assay: Lipidomics of total lipid abundance; format: cell-based, human
Description: To investigate the effect of CBD on cholesterol storage, the present inventors performed follow up experiments to determine the total cellular amounts of small molecule markers of cholesterol storage as a function of CBD exposure. The inventors detected accumulation of multiple species of cholesteryl esters with diverse chain length and degree of unsaturation in the acyl chain (FIG. 4A).
Since this esterification requires acyl CoA reactants, the inventors surveyed our dataset for evidence of fatty acid utilization.
(§1) Thus, the present inventors found multiple lines of evidence consistent with activation of cholesterol esterification in the CBD response. To further support the claim that CBD elicits cholesterol storage, the present inventors used live cell confocal microscopy of SK-N-BE(2) cells stained with both fluorescent cholesterol (22-NBD-Cholesterol) and the lipid droplet dye nile red (FIG. 4E) to quantify the number and size of lipid droplets. […] Altogether, these combined experiments highlight that the CBD response in cells includes activation of cholesterol esterification and storage.
Extraction of cholesterol, precursors, free fatty acids, cholesteryl esters, and phospho lipids were performed in the following manner. SK-N-BE(2) cells in 10 cm dishes were washed with 10 mL PBS twice and then cells were scraped and pelleted at 400 rcf for 2 minutes. Cell pellets were resuspended in 100% methanol at 4° C. and sonicate at 70% power in 10 pulses, 5 seconds on/5 seconds off. The resulting lysate was rotated for 60 minutes at room temperature, followed by centrifugation for 20 min at 4° C. (16,100 rcf). Subcellular fractionation of organelles from intact SK-N-BE(2) cells was done in the following manner to assess subcellular CBD distribution. Cells in 10 cm culture dishes were harvest by washing twice with 10 mL PBS at room temperature, followed by trypsinization using a cell culture grade Trypsin/EDTA solution (ThermoFisher). Trypsinized cells were quenched by addition of 2 mL 10% FBS containing DMEM and cells were pelleted by centrifugation for 2 min at 4° C. (200 rcf). Cell pellets were wash one time with 10 mL PBS, and resuspended in 1 mL Tween20 Buffer (1×PBS, 0.05% Tween20, 5 mM EDTA). This lysate was subjected to mechanical disruption using a 1 mL glass Dounce homogenizer, 10 full passes at 4° C. Nuclei was pelleted from homogenate by centrifugation for 5 min at 4° C. (2,000 rcf). Supernatant was separated and insoluble ER membranes were pelleted by centrifugation for 10 min at 4° C. (4,000 rcf). Supernatant was separated and insoluble plasma membranes were pelleted by centrifugation for 10 min at 4° C. (16,000 rcf). […]

SK-N-BE(2) cells [2] = assay: Live cell confocal microscopy of lipid droplets (NBD-cholesterol, nile red); format: cell-based, human; settings: CBD 20 μM, 24 hrs
Description: as §1
SK-N-BE(2) cells were seeded into fibronectin coated glass bottom 96 well plates (Matriplate) at a cell density of 40,000 cells/well using low background imaging media (FluoroBrite DMEM with all supplements described, above). At the time of seeding, nile red (ThermoFisher) was added at a final concentration of 100 ng/mL and NBD-cholesterol (ThermoFisher) was added at a final concentration of 10 μg/mL. […] Lipid droplets and their sizes were detected and quantified using the ImageJ Find Particles Function, and data was subsequently processed using Microsoft Excel. Error depicted represents the standard deviation calculated from three biological replicates. […]

SK-N-BE(2) cells [3] = assay: Live cell microscopy apoptosis assay (caspase 3/7 dye)
Protocol: (§2) To accurately measure cellular apoptosis over time, the present inventors performed live cell microscopy experiments with cells loaded with both DNA and caspase 3/7 dyes, which enables continuous and precise quantification of apoptosis at the single cell level.
(§3) Cell viability for SK-N-BE(2) cells was conducted using a fluorometric cell viability assay using Resazurin (PromoKine) according to the manufacturer's instructions. […] Dyes were added at the time of seeding, 18-24 hours prior to performing experiments.
(§4) Experiments were performed using an ImageXpress MicroXL microscope and a 10× objective, where images were acquired for each well at the indicated time-points using DAPI and FITC filter sets. […] Percent apoptotic cells was calculated from the sum of apoptotic cell pixels divided by the sum of all cell pixels for each field of view.

HaCaT cells = assay: as above; settings: increasing 25-hydroxy cholesterol, constant CBD
Protocol: as §2, §3, §4

C=C(C)[C@@H]1CCC(C)=C[C@H]1c1c(O)cc(CCCCC)cc1O [CBD, cannabidiol]
cholesteryl esters (SK-N-BE(2) cells [1]; CBD 20 μM vs vehicle): accumulation
free fatty acid levels (SK-N-BE(2) cells [1]; CBD 20 μM vs vehicle): reduced
free phospholipid head-groups (SK-N-BE(2) cells [1]; CBD 20 μM vs vehicle): accumulation
phosphatidylcholine and phosphatidylethanolamine species abundance (SK-N-BE(2) cells [1]; CBD treated vs vehicle treated cells): reduced abundance
average abundance of lipid droplets (SK-N-BE(2) cells [2]): increases
lipid droplet size (SK-N-BE(2) cells [2]): does not affect
effect on DHA induced apoptosis (SK-N-BE(2) cells [3]; DHA 75 μM with MBCD 300 μM or CBD 6.25 μM): completely cancel the apoptotic effects
sensitivity of CBD exposed cells to 25-hydroxy cholesterol induced apoptosis (SK-N-BE(2) cells [3]; increasing 25-hydroxy cholesterol, constant CBD): clear dose dependent sensitivity
sensitivity of CBD exposed cells to 25-hydroxy cholesterol induced apoptosis, relative to SK-N-BE(2) (HaCaT cells): more dramatically observed
